In patent US20090312433A1, “TREATMENT OF VR1-ANTAGONIST-INDUCED INCREASE IN BODY TEMPERATURE WITH AN ANTIPYRETIC AGENT” (Amgen Inc., priority 2005, published 2009):
“Also recorded” adds a separate entry of the source. One block for each molecule: values may come before it.

Columns and labels:
rats = test: Body temperature in rats after TRPV1 antagonist followed by acetaminophen; format: in vivo
Method: In this study rats were first treated with vehicle (Oraplus/5% Tween 80) or a TRPV1 antagonist (Compound A; 3 mg/kg, p.o.). Following a 120 min period, separate groups of rats were then administered vehicle (Oraplus/5% Tween 80) or acetaminophen (300 mg/kg, p.o.). Body temperature was then measured for an additional 120 min.

TRPV1 [1] = conditions: different species; cited from earlier work
TRPV1 [2] = conditions: cited from earlier work

body temperature following treatment with TRPV1 antagonist (rats; 3 mg/kg, p.o., 120 min period after dosing): significant increase in body temperature
body temperature compared to the control group (Veh+Veh) (rats; Compound A 3 mg/kg p.o. followed after 120 min by vehicle (Compound A+Veh group), measured for an additional 120 min): remained elevated
SMILES: CC(=O)Nc1nc2c(Oc3cc(-c4ccc(C(F)(F)F)cc4NC(=O)OC(C)(C)C)ncn3)cccc2s1 [Compound A, {2-[6-(2-acetylamino-benzothiazol-4-yloxy)-pyrimidin-4-yl]-5-trifluoromethyl-phenyl}-carbamic acid tert-butyl ester]

SMILES: C=C(C)[C@]12C[C@@H](C)[C@@]34O[C@](Cc5ccccc5)(O[C@@H]1[C@@H]3C=C(COC(=O)Cc1ccc(O)c(OC)c1)C[C@]1(O)C(=O)C(C)=C[C@@H]41)O2 [RTX, resiniferatoxin]
hypothermia induced by TRPV1 agonists (TRPV1 [1]): induce hypothermia

SMILES: CC(=O)Nc1ccc(O)cc1 [acetaminophen]
body temperature after TRPV1 antagonist followed by acetaminophen (rats; Compound A 3 mg/kg p.o., then after 120 min acetaminophen 300 mg/kg p.o. (Compound A+Acet group), measured for an additional 120 min): reversed; also recorded: decreased to levels observed in the control group
body temperature, acetaminophen alone (rats; vehicle, then after 120 min acetaminophen 300 mg/kg p.o. (Veh+Acet group)): decreased

SMILES: COc1cc(CNC(=O)CCCC/C=C/C(C)C)ccc1O [capsaicin]
hypothermia induced by TRPV1 agonists (TRPV1 [1]): induce hypothermia
hypothermia in mice lacking TRPV1 (TRPV1 [2]): did not induce hypothermia
